Values quoted from earlier work in patent US9326991B2, “Nucleotide prodrug compounds and use” (LIGAND PHARMACEUTICALS INC., priority 2012, dated 2016).

Conditions: human subjects

half-life: ~12 days
SMILES: NC(=O)c1ncn([C@@H]2O[C@H](CO)[C@@H](O)[C@H]2O)n1 [Ribavirin, 1-((2R,3R,4S,5R)-3,4-dihydroxy-5-(hydroxymethyl)oxolan-2-yl)-1H-1,2,4-triazole-3-carboxamide]
